Patent publication US4206215A, “Antimicrobial bis-[4-(substituted-amino)-1-pyridinium]alkanes” (Sterling Drug Inc., priority 1977, dated 1980)
Where two headings read alike, the source gives them in different places.

Legend:
[1] = test system: C. albicans 10231; assay: In vitro antifungal activity, MIC (modified Autotiter method); format: cell-based, Candida albicans; details: 18-20 hours at 37° C.
How it was run: (§1)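 Steps: prepare compound at 1,000 mcg./ml.; load first cup; instrument transfers and halves concentration serially into sterile water; inoculated double-strength semisynthetic glucose medium added to every cup. Final concentrations 500 to 0.06 mcg./ml.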

[2] = test system: C. albicans Wisc.; assay: as above; format: cell-based, Candida albicans; details: 18-20 hours at 37° C.
How it was run: as §1

[3] = test system: E. coli 100/B22; assay: In vitro antibacterial activity, MIC (modified Autotiter method); format: cell-based, Escherichia coli
How it was run: as §1

[4] = test system: E. coli Vogel; assay: as above; format: cell-based, Escherichia coli; details: 18-20 hours at 37° C.
How it was run: as §1

[5] = test system: E. coli AB1932-1; assay: as above; format: cell-based, Escherichia coli; details: 18-20 hours at 37° C.
How it was run: as §1

[6] = test system: K. pneum. 39645; assay: as above; format: cell-based, Klebsiella pneumoniae; details: 18-20 hours at 37° C.
How it was run: as §1

[7] = Acute oral toxicity (ALD50); format: in vivo; details: mouse, in vivo, po, mice, suspension in 1% gum tragacanth; read-out: 7-Day ALD50
Method: (§2) The acute oral toxicity (ALD50) of several representative examples was determined as follows: Groups of 3 young adult male Swiss-Webster strain albino mice were fasted approximately 4 hours before medication and then medicated once orally by stomach tube.

[8] = test system: young adult male Swiss-Webster strain albino mice; assay: Acute oral toxicity (ALD50); format: in vivo; details: suspension in 1% G.T.
Method: as §2

[9] = test system: T. menta. 9129; assay: In vitro antifungal activity, MIC (modified Autotiter method); format: cell-based, Trichophyton mentagrophytes; details: 18-20 hours at 37° C.
How it was run: as §1

[10] = test system: S. Aureus ATCC 6538; assay: Effect of serum on bacteriostatic activity (serial tube dilution test); format: cell-based, Staphyloccocus aureus; details: for MIC: Staphylococcus aureus, ATCC6538
[11] = test system: S. pyogen. C203; assay: In vitro antibacterial activity, MIC (modified Autotiter method); format: cell-based, Streptococcus pyogenes; details: 18-20 hours at 37° C.
How it was run: as §1

[12] = test system: Ps. aerug. MGH-2; assay: as above; format: cell-based, Pseudomonas aeruginosa; details: 18-20 hours at 37° C.
How it was run: as §1

[13] = test system: P. mirab. MGH-1; assay: as above; format: cell-based, Proteus mirabilis; details: 18-20 hours at 37° C.
How it was run: as §1

[14] = test system: Herpes simplex type 2 virus; assay: Virucidal activity in vitro (plaque inhibition test); format: cell-based; details: 2 mg. of test compound on growth medium
Method: Virucidal activity of representative examples against Herpes simplex type 2 virus was determined in vitro employing a procedure similar to the plaque inhibition test for detection of specific inhibitors of DNA-containing viruses published by E. C. Herrmann, Jr., Proc. Soc. Exp. Biol. Med. 107, 142 (1961) wherein 2 mg. of the test compound was placed on the surface of the growth medium.

[15] = test system: Streptococcus mutans OMZ-61; assay: Dental plaque-preventive effectiveness in the presence of sterile human saliva (50%); format: cell-based; details: 50% sterile human saliva
Method: The dental plaque preventive activity of certain of the compounds of the present invention was determined by measuring the ability of these compounds to inhibit the production of dental plaque by Streptococcus mutans OMZ-61 as follows:
A culture medium for the plaque-producing Streptococcus mutans OMZ-61 containing 1.5 g. of BBL beef extract, 5 g. of sodium chloride, 10 g. of dehydrated trypticase, 5 g. of sucrose and sufficient distilled water to give a total volume of 1000 ml. is adjusted to pH 7.0 and sterilized by membrane filtration. The medium is dispensed aseptically in 10-ml. aliquots into 150×16 mm. test tubes and stored at refrigeration temperature until used.
Two concentrations of the compound to be tested are prepared by dissolving 100 mg. of the compound in 1 ml. of distilled water with the aid of sufficient 0.1 N sodium hydroxide, 10% dimethylsulfoxide or 10% N,N-dimethylformamide and diluting the resulting solution to 10 ml. with distilled water. This 1.0% solution and a 1:10 dilution in distilled water (0.1%) are sterilized by membrane filtration before use.
A sterile piece of plaque-free natural tooth enamel or synthetic hydroxylapatite is suspended in each concentration of compound for two 1-minute periods, each followed by a 1-minute air drying period. Each piece is then suspended and agitated for 5 minutes in individual test tubes containing sterile distilled water (rinse). They are then suspended in 10 ml. of liquid beef extract medium to which has been added 0.3 ml. of a 24-hr. anaerobic culture of Streptococcus mutans. The tubes containing the "treated" hydroxylapatite and the Streptococcus mutans are then incubated anaerobically at 37° C. for 24 hours. The same process of two 1-minute soaks in the solution of compound, each followed by 1 minute of air drying and the final 5-minute rinse is repeated before once again suspending the hydroxylapatite in a fresh tube containing 10 ml. of beef extract medium and 0.3 ml. of inoculum. At the end of the second 24-hour period, each piece of hydroxylapatite is rinsed for 1 minute in 3 successive tubes of distilled water. These are then suspended for 1 minute in a solution of F, D & C Red No. 3 dye. This staining procedure is used in order to identify more easily the development of plaque after the 48-hour period of exposure to the plaque-producing organism. The staining period is followed by another 10-second rinse to remove excess dye. Any plaque formation stains a brilliant pink. […] Active compounds are tested at successively lower doses in order to determine the minimum effective concentration. On some occasions, the interference of plaque production is caused by the inhibition of growth of the organism in the culture medium because the compound has been leached from the hydroxylapatite to produce an antibacterial level in the medium. When this occurs, the compound is tested at lower concentrations until the growth of the organism in the surrounding medium is equal to that in the nonmedicated control culture. Plaque may or may not be formed at these lower concentrations.
Dental plaque-preventive effectiveness in the presence of sterile human saliva (50%) was determined for representative examples.

[16] = test system: S. Aureus Smith; assay: In vitro antibacterial activity, MIC (modified Autotiter method); format: cell-based, Staphylococcus aureus; details: 18-20 hours at 37° C.
How it was run: as §1

[17] = test system: E. Coli ATCC 8739; assay: Effect of serum on bacteriostatic activity (serial tube dilution test); format: cell-based, Escherichia coli; details: for MIC: Escherichia coli, ATCC8739
How it was run: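 Bacteriostatic potency against Escherichia coli ATCC 8739 was measured with the standard serial tube dilution test. Minimum inhibitory concentrations were determined in pairs, with the test medium either lacking serum or containing 40% horse serum heat-inactivated at 56° C. for 30 min. Serum impact was reported as the fold increase in MIC (mcg./ml.).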

[18] = test system: A. niger 16404; assay: In vitro antifungal activity, MIC (modified Autotiter method); format: cell-based, Aspergillus niger; details: 18-20 hours at 37° C.
How it was run: as §1

[19] = 25 mg/kg (so in the source) oral

CCCCCCCCNc1cc[n+](CCCCCCCCCC[n+]2ccc(NCCCCCCCC)cc2)cc1 [Example 9D, 1,10-bis-[4-(octylamino)-1-pyridinium]decane dibromide]
MIC C. albicans 10231 [1]: 1.0 µg/mL | MIC C. albicans Wisc. [2]: 1.0 µg/mL | MIC E. coli 100/B22 ([3]; 18-20 hours at 37° C.): 1.95 µg/mL | MIC E. coli Vogel [4]: 1.95 µg/mL | MIC E. coli AB1932-1 [5]: 1.0 µg/mL | MIC K. pneum. 39645 [6]: 3.9 µg/mL | LD50 at 168 h [7]: > 1000 mg/kg | Mortality 7 Days [8, 19]: 0/3 | Mortality 24 Hrs [8, 19]: 0/3 | Mortality 7 Days ([8]; 250 mg/kg oral): 0/3 | Mortality 24 Hrs ([8]; 250 mg/kg oral): 0/3 | Mortality 7 Days ([8]; 500 mg/kg oral): 0/3 | Mortality 24 Hrs ([8]; 500 mg/kg oral): 0/3 | Mortality 7 Days ([8]; 1000 mg/kg oral): 0/3 | Mortality 24 Hrs ([8]; 1000 mg/kg oral): 0/3 | MIC T. menta. 9129 [9]: 1.0 µg/mL | Fold Increase in MIC S. Aureus ATCC 6538 ([10]; 40% vs 0% horse serum): 16 fold | MIC ([10]; 40% heat inactivated horse serum, read-out: MIC S. Aureus ATCC 6538 40% Serum): 7.8 µg/mL | MIC ([10]; read-out: MIC S. Aureus ATCC 6538 0% Serum): 0.5 µg/mL | MIC S. pyogen. C203 [11]: 0.5 µg/mL | MIC Ps. aerug. MGH-2 [12]: 3.9 µg/mL | MIC P. mirab. MGH-1 [13]: 3.9 µg/mL | Virucidal activity against Herpes simplex type 2 virus [14]: active | Dental Plaque Preventive Activity in 50% saliva Minimum Effective Conc. (%) [15]: Ca. 0.005% | MIC S. Aureus Smith [16]: 0.5 µg/mL | Fold Increase in MIC E. Coli ATCC 8739 ([17]; 40% vs 0% horse serum): 64 fold | MIC ([17]; 40% heat inactivated horse serum, read-out: MIC E. Coli ATCC 8739 40% Serum): 62.5 µg/mL | MIC ([17]; read-out: MIC E. Coli ATCC 8739 0% Serum): 1 µg/mL | MIC A. niger 16404 [18]: 1.95 µg/mL

CCCCC(CC)CNc1cc[n+](CCCCCCCC[n+]2ccc(NCC(CC)CCCC)cc2)cc1 (stereo not shown) [Example 56, 1,8-bis-[4-(2-ethylhexylamino)-1-pyridinium]octane dibromide]
MIC ([1]; Candida albicans, 10231, 20 h, read-out: MIC C. albicans 10231): 3.9 µg/mL | MIC ([2]; Candida albicans, 20 h, read-out: MIC C. albicans Wisc.): 3.9 µg/mL | MIC ([3]; Escherichia coli, 100/B22, 20 h, read-out: MIC E. coli 100/B22, 18-20 hours at 37° C.): 1.95 µg/mL | MIC ([4]; Escherichia coli, 20 h, read-out: MIC E. coli Vogel): 3.9 µg/mL | MIC ([5]; Escherichia coli, AB19321, 20 h, read-out: MIC E. coli AB1932-1): 0.98 µg/mL | MIC ([6]; Klebsiella pneumoniae, 20 h, read-out: MIC K. pneum. 39645): 7.8 µg/mL | LD50 at 168 h [7]: > 1000 mg/kg | Mortality 7 Days ([8]; 125 mg/kg oral): 0/3 | Mortality 24 Hrs ([8]; 125 mg/kg oral): 0/3 | Mortality 7 Days ([8]; 250 mg/kg oral): 0/3 | Mortality 24 Hrs ([8]; 250 mg/kg oral): 0/3 | Mortality 7 Days ([8]; 500 mg/kg oral): 0/3 | Mortality 24 Hrs ([8]; 500 mg/kg oral): 0/3 | Mortality 7 Days ([8]; 1000 mg/kg oral): 1/3 | Mortality 24 Hrs ([8]; 1000 mg/kg oral): 1/3 | MIC ([9]; Trichophyton mentagrophytes, 20 h, read-out: MIC T. menta. 9129): 1.95 µg/mL | MIC ([11]; Streptococcus pyogenes, 20 h, read-out: MIC S. pyogen. C203): 0.16 µg/mL | MIC ([12]; Pseudomonas aeruginosa, 20 h, read-out: MIC Ps. aerug. MGH-2): 125 µg/mL | MIC ([13]; Proteus mirabilis, 20 h, read-out: MIC P. mirab. MGH-1): 125 µg/mL | Virucidal activity against Herpes simplex type 2 virus [14]: active | Dental Plaque Preventive Activity in 50% saliva Minimum Effective Conc. (%) [15]: 0.1% | MIC ([16]; Staphylococcus aureus, 20 h, read-out: MIC S. Aureus Smith): 0.31 µg/mL | MIC ([18]; Aspergillus niger, 16404, 20 h, read-out: MIC A. niger 16404): 15.6 µg/mL
